From ChEMBL document CHEMBL1153816, “Novel N-substituted 4-hydrazino piperidine derivative as a dipeptidyl peptidase IV inhibitor” (Bioorg Med Chem Lett, 2009)
Activity calls are given as the source filed them. The calls are words filed in the database; no cut-off is given here.

Tests used:
Dipeptidyl peptidase 4 = Dipeptidyl peptidase 4 (Sus scrofa, UniProt P22411); test: Inhibition of pig kidney DPP4 by spectrophotometric method
Rattus norvegicus [1] = test: Antidiabetic activity in ZDF rat diabetic model assessed as increase in insulin release at 44 mg/kg, po administered BID for 6 weeks by sandwich ELISA; assay type: functional, organism-based; design: dose 44 mg/kg
Rattus norvegicus [2] = test: Antidiabetic activity in n5-STZ rat diabetic model assessed as decrease in glucose excursion at 44 mg/kg, po administered as single dose by OGTT
Rattus norvegicus [3] = test: Antidiabetic activity in n5-STZ rat diabetic model assessed as decrease in glucose AUC at 44 mg/kg, po administered as single dose by OGTT
Rattus norvegicus [4] = test: Antidiabetic activity in n5-STZ rat diabetic model assessed as stimulation of insulin response at 44 mg/kg, po administered as single dose by sandwich ELISA
Rattus norvegicus [5] = test: Antidiabetic activity in ZDF rat diabetic model assessed as decrease in glucose excursion at 44 mg/kg, po administered BID for 6 weeks by OGTT; assay type: functional, organism-based; design: dose 44 mg/kg
Rattus norvegicus [6] = test: Inhibition of DPP4 in n5-STZ rat at 22 mg/kg, po administered as single dose after 4 hrs relative to vehicle treated control

Dipeptidyl peptidase 4, sequence (P22411 whole entry): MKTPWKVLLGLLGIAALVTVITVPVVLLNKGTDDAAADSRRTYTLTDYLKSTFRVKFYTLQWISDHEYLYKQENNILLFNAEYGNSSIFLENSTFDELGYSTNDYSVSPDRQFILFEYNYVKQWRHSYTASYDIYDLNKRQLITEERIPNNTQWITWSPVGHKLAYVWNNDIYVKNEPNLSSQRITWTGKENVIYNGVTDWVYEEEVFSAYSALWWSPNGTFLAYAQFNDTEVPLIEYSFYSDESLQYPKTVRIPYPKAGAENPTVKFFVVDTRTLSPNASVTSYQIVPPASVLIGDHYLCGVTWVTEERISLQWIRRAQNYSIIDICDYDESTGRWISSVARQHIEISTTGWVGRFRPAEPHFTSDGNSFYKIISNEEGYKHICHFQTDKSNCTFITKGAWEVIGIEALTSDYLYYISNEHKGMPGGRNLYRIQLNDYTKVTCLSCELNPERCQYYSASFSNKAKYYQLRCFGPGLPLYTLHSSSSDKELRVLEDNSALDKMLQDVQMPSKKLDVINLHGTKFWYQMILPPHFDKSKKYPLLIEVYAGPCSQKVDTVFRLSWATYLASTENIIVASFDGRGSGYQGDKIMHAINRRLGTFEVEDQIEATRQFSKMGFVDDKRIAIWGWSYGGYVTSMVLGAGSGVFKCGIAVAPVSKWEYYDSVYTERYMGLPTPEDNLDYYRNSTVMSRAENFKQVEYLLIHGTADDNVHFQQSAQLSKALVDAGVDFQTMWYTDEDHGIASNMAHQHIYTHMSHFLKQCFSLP

| IC50 (Dipeptidyl peptidase 4) | Structure (SMILES) | also measured |
| --- | --- | --- |
| 2700 nM | Cc1ccc(S(=O)(=O)N2CCC(N(N)CC(=O)N3CSC[C@H]3C#N)CC2)cc1 |  |
| 200 nM | N#Cc1ccc(NC(=O)CN2CCC(N(N)CC(=O)N3CSC[C@H]3C#N)CC2)cc1 |  |
| 240 nM | N#C[C@@H]1CSCN1C(=O)CN(N)C1CCN(CC(=O)Nc2ccc3c(c2)OCO3)CC1 |  |
| 1790 nM | N#C[C@@H]1CSCN1C(=O)CN(N)C1CCN(C(=O)c2cccc(Cl)c2Cl)CC1 |  |
| 90 nM | N#C[C@@H]1CSCN1C(=O)CN(N)C1CCN(CC(=O)Nc2ccc(S(N)(=O)=O)cc2)CC1 [listing 1 of 2 here] |  |
| 98 nM | N#C[C@@H]1CSCN1C(=O)CN(N)C1CCN(CC(=O)Nc2ccc(S(N)(=O)=O)cc2)CC1 [listing 2 of 2 here] |  |
| 4770 nM | N#C[C@@H]1CSCN1C(=O)CN(N)C1CCN(Cc2cccnc2)CC1 |  |
| 134 nM | N#C[C@@H]1CSCN1C(=O)CN(N)C1CCN(CC(=O)Nc2nc3ccccc3s2)CC1 |  |
| 359 nM | N#C[C@@H]1CSCN1C(=O)CN(N)C1CCN(CC(=O)Nc2ccc(F)c(Cl)c2)CC1 |  |
| 110 nM | N#Cc1ccc(NC(=O)CN2CCC(N(N)CC(=O)N3CSC[C@H]3C#N)CC2)nc1 [listing 1 of 2 here] |  |
| 2230 nM | N#C[C@@H]1CSCN1C(=O)CN(N)C1CCN(Cc2ccc(F)cc2)CC1 |  |
| 510 nM | N#C[C@@H]1CSCN1C(=O)CN(N)C1CCN(CC(=O)NCc2ccccc2F)CC1 |  |
| 308 nM | N#C[C@@H]1CSCN1C(=O)CN(N)C1CCN(CC(=O)Nc2ccc(C(F)(F)F)cc2)CC1 |  |
| 130 nM | N#Cc1ccc(NC(=O)CN2CCC(N(N)CC(=O)N3CSC[C@H]3C#N)CC2)nc1 [listing 2 of 2 here] |  |
| 6680 nM | COc1ccc(S(=O)(=O)N2CCC(N(N)CC(=O)N3CSC[C@H]3C#N)CC2)cc1 |  |
| 1020 nM | N#Cc1cc(CN2CCC(N(N)CC(=O)N3CSC[C@H]3C#N)CC2)ccc1-c1ccccc1 |  |
| 698 nM | N#C[C@@H]1CSCN1C(=O)CN(N)C1CCN(Cc2ccc([N+](=O)[O-])cc2)CC1 |  |
| 638 nM | N#C[C@@H]1CSCN1C(=O)CN(N)C1CCN(COc2ccccc2)CC1 |  |
| 1450 nM | N#C[C@@H]1CSCN1C(=O)CN(N)C1CCN(S(=O)(=O)c2ccc(Cl)cc2)CC1 |  |
| 1630 nM | N#C[C@@H]1CSCN1C(=O)CN(N)C1CCN(Cc2ccccc2)CC1 |  |
| 143 nM | N#C[C@@H]1CSCN1C(=O)CN(N)C1CCN(CC(=O)Nc2ncccn2)CC1 |  |

The next lines start with the compound.

| Structure (SMILES) | IC50 (Dipeptidyl peptidase 4) | also measured |
| --- | --- | --- |
| CC(C)OCCCNC(=O)CN1CCC(N(N)CC(=O)N2CSC[C@H]2C#N)CC1 | 468 nM |  |
| Cc1nc(NC(=O)CN2CCC(N(N)CC(=O)N3CSC[C@H]3C#N)CC2)sc1C | 185 nM |  |
| N#C[C@@H]1CSCN1C(=O)CN(N)C1CCN(CC(=O)NC23CC4CC(CC(C4)C2)C3)CC1 | 523 nM |  |
| N#C[C@@H]1CSCN1C(=O)CN(N)C1CCNCC1 | 12100 nM |  |
| N#C[C@@H]1CSCN1C(=O)CN(N)C1CCN(CC(=O)Nc2ccc(Cl)cn2)CC1 |  | Activity (Rattus norvegicus [1]): Active; Activity (Rattus norvegicus [2]): Active; Activity (Rattus norvegicus [3]): Active; Activity (Rattus norvegicus [4]): Active; Activity (Rattus norvegicus [5]): Active; inhibition in vivo at 22 mg/kg (Rattus norvegicus [6]): 39.8% |
| N#C[C@@H]1CSCN1C(=O)CN(N)C1CCN(C(=O)N2CCOCC2)CC1 | 790 nM |  |
| CS(=O)(=O)N1CCC(N(N)CC(=O)N2CSC[C@H]2C#N)CC1 | 1460 nM |  |
| N#C[C@@H]1CSCN1C(=O)CN(N)C1CCN(C(=O)CN2CCOCC2)CC1 | 830 nM |  |
| CCNN(CC(=O)N1CSC[C@H]1C#N)C1CCN(S(C)(=O)=O)CC1 | 3760 nM |  |
| N#C[C@@H]1CSCN1C(=O)CN(N)C1CCN(CC(=O)NC2CCCCC2)CC1 | 506 nM |  |
| CC1CCC(C(=O)N2CCC(N(N)CC(=O)N3CSC[C@H]3C#N)CC2)CC1 (some centres not stated) | 866 nM |  |
| CC(C)(C)C(=O)N1CCC(N(N)CC(=O)N2CSC[C@H]2C#N)CC1 | 4150 nM |  |
| COCCNC(=O)CN1CCC(N(N)CC(=O)N2CSC[C@H]2C#N)CC1 | 1030 nM |  |
| CC(=O)N1CCC(N(N)CC(=O)N2CSC[C@H]2C#N)CC1 | 1530 nM |  |
| CN(CCN)C(=O)N1CCC(N(N)CC(=O)N2CSC[C@H]2C#N)CC1 | 1230 nM |  |
| N#C[C@@H]1CSCN1C(=O)CN(N)C1CCN(CC(=O)Nc2ncc(Br)s2)CC1 | 226 nM |  |
| COC(=O)NN(CC(=O)N1CSC[C@H]1C#N)C1CCN(CC(=O)Nc2ccc(Cl)cn2)CC1 | 38400 nM |  |
| N#C[C@@H]1CCCN1C(=O)CN(N)C1CCN(CC(=O)Nc2ccc(Cl)cn2)CC1 | 3700 nM |  |
| N#C[C@@H]1CSCN1C(=O)CN(N)C1CCN(CC(=O)NC2CC2)CC1 [listing 1 of 2 here] | 217 nM |  |
| CCNN(CC(=O)N1CSC[C@H]1C#N)C1CCN(CC(=O)Nc2ccc(Cl)cn2)CC1 | 490 nM |  |
| N#C[C@@H]1CSCN1C(=O)CN(N)C1CCN(CC(=O)NC2CC2)CC1 [listing 2 of 2 here] | 236 nM |  |
